Assay: recombinant UMI read abundance after kanamycin selection (control-corrected) (log10(CPM+1)); higher = more efficient recombination; extreme values may be limits of the assay; sequences stand for … in AGTGCAGAGAAAATCGGCCAGTTTTCTCTGCCTGCAGTCCGCATGCCGTGGGACCCCTTGGGTTCTAACCTGTTGCCTAGATTTATGCAGCGGACTGCCTTTCTCCCAAAGTGATAAACCGG…AGGTTGGTTTCACT; site = the 11-nt donor
Procedure, shortened: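 Counts of recombinant UMIs were reported as log10(CPM+1). Before that, they were converted to CPM, averaged over replicates and scaled using control-derived factors. They came from PCR across the donor–target junction after Escherichia coli carrying the pair library and target plasmid was plated on IPTG (0.07 mM) plus kanamycin, or unselected, in two replicates each.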
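Note: IS621 bridge recombinase in Escherichia coli cells against a fixed T5 target plasmid.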

Sequence: CGTTTGGCATGGACCGGTTTTCCCGGTAATCCGTATTTGCT (site CGTTCGGCTAG)
- recombinant UMI read abundance (log10): 0.0122

Sequence: CGTTTGGCATGGACCGGTTTTCCCGGTAATCCGTATTTGCT (site CGTTGGGCTAG)
- recombinant UMI read abundance (log10): 0

Sequence: CGTTTGGCATGGACCGGTTTTCCCGGTAATCCGTATTTGCT (site CGTTTAGCTAG)
- recombinant UMI read abundance (log10): 0

Sequence: CGTTTGGCATGGACCGGTTTTCCCGGTAATCCGTATTTGCT (site CGTTTCGCTAG)
- recombinant UMI read abundance (log10): 0

Sequence: CGTTTGGCATGGACCGGTTTTCCCGGTAATCCGTATTTGCT (site CGTTTGACTAG)
- recombinant UMI read abundance (log10): 0

Sequence: CGTTTGGCATGGACCGGTTTTCCCGGTAATCCGTATTTGCT (site CGTTTGCCTAG)
- recombinant UMI read abundance (log10): 0

Sequence: CGTTTGGCATGGACCGGTTTTCCCGGTAATCCGTATTTGCT (site CGTTTGGCTAA)
- recombinant UMI read abundance (log10): 0.00833

Sequence: CGTTTGGCATGGACCGGTTTTCCCGGTAATCCGTATTTGCT (site CGTTTGGCTAC)
- recombinant UMI read abundance (log10): 0.00533

Sequence: CGTTTGGCATGGACCGGTTTTCCCGGTAATCCGTATTTGCT (site CGTTTGGCTAG)
- recombinant UMI read abundance (log10): 0

Sequence: CGTTTGGCATGGACCGGTTTTCCCGGTAATCCGTATTTGCT (site CGTTTGGCTAT)
- recombinant UMI read abundance (log10): 0.00603

Sequence: CGTTTGGCATGGACCGGTTTTCCCGGTAATCCGTATTTGCT (site CGTTTGGCTCG)
- recombinant UMI read abundance (log10): 0.00605

Sequence: CGTTTGGCATGGACCGGTTTTCCCGGTAATCCGTATTTGCT (site CGTTTGGCTGG)
- recombinant UMI read abundance (log10): 0

Sequence: CGTTTGGCATGGACCGGTTTTCCCGGTAATCCGTATTTGCT (site CGTTTGGCTTG)
- recombinant UMI read abundance (log10): 0

Sequence: CGTTTGGCATGGACCGGTTTTCCCGGTAATCCGTATTTGCT (site CGTTTGTCTAG)
- recombinant UMI read abundance (log10): 0

Sequence: CGTTTGGCATGGACCGGTTTTCCCGGTAATCCGTATTTGCT (site CGTTTTGCTAG)
- recombinant UMI read abundance (log10): 0

Sequence: CGTTTGGCATGGACCGGTTTTCCCGGTAATCCGTATTTGCT (site CTTTTGGCTAG)
- recombinant UMI read abundance (log10): 0

Sequence: CGTTTGGCATGGACCGGTTTTCCCGGTAATCCGTATTTGCT (site GGTTTGGCTAG)
- recombinant UMI read abundance (log10): 0

Sequence: CGTTTGGCATGGACCGGTTTTCCCGGTAATCCGTATTTGCT (site TGTTTGGCTAG)
- recombinant UMI read abundance (log10): 0.00607

Sequence: CTAAATGCATGGACCGGTTTTCCCGGTAATCCGTATTTGAG (site CTAAATGCTCT)
- recombinant UMI read abundance (log10): 2.87

Sequence: CTAAGCACATGGACCGGTTTTCCCGGTAATCCGTATTTGCT (site CTAAGCACTAG)
- recombinant UMI read abundance (log10): 1.9

Sequence: CTAAGCCCATGGACCGGTTTTCCCGGTAATCCGTATTTGAA (site CTAAGCCCTTT)
- recombinant UMI read abundance (log10): 1.25

Sequence: CTAAGCGCATGGACCGGTTTTCCCGGTAATCCGTATTTGAA (site CTAAGCGCTTT)
- recombinant UMI read abundance (log10): 2.02

Sequence: CTAAGTCCATGGACCGGTTTTCCCGGTAATCCGTATTTGGA (site CTAAGTCCTTC)
- recombinant UMI read abundance (log10): 0.16

Sequence: CTAATAACATGGACCGGTTTTCCCGGTAATCCGTATTTGAC (site CTAATAACTGT)
- recombinant UMI read abundance (log10): 2.34

Sequence: CTAATAACATGGACCGGTTTTCCCGGTAATCCGTATTTGAC (site CTAGTATCTGT)
- recombinant UMI read abundance (log10): 0

Sequence: CTAATAACATGGACCGGTTTTCCCGGTAATCCGTATTTGAT (site CTAATAACTAT)
- recombinant UMI read abundance (log10): 2.54

Sequence: CTAATGACATGGACCGGTTTTCCCGGTAATCCGTATTTGAC (site CTAATGACTGT)
- recombinant UMI read abundance (log10): 1.47

Sequence: CTAATTTCATGGACCGGTTTTCCCGGTAATCCGTATTTGCC (site CTAATTTCTGG)
- recombinant UMI read abundance (log10): 1.14

Sequence: CTACAGACATGGACCGGTTTTCCCGGTAATCCGTATTTGAG (site CTACAGACTCT)
- recombinant UMI read abundance (log10): 1.81

Sequence: CTACGGCCATGGACCGGTTTTCCCGGTAATCCGTATTTGCC (site CTACGGCCTGG)
- recombinant UMI read abundance (log10): 0.363

Sequence: CTACGGGCATGGACCGGTTTTCCCGGTAATCCGTATTTGAG (site CTACGGGCTCT)
- recombinant UMI read abundance (log10): 1.72

Sequence: CTACTACCATGGACCGGTTTTCCCGGTAATCCGTATTTGCT (site CTACTACCTAG)
- recombinant UMI read abundance (log10): 0.232

Sequence: CTACTACCATGGACCGGTTTTCCCGGTAATCCGTATTTGCT (site CTCCTACCTAG)
- recombinant UMI read abundance (log10): 0.00711

Sequence: CTACTACCATGGACCGGTTTTCCCGGTAATCCGTATTTGCT (site CTGCTACCTAG)
- recombinant UMI read abundance (log10): 0.00524

Sequence: CTACTACCATGGACCGGTTTTCCCGGTAATCCGTATTTGCT (site CTTCTACCTAG)
- recombinant UMI read abundance (log10): 0

Sequence: CTACTACCATGGACCGGTTTTCCCGGTAATCCGTATTTGGA (site CTACTAACTTC)
- recombinant UMI read abundance (log10): 0.0163

Sequence: CTACTACCATGGACCGGTTTTCCCGGTAATCCGTATTTGGA (site CTACTACCTTC)
- recombinant UMI read abundance (log10): 0.00874

Sequence: CTACTACCATGGACCGGTTTTCCCGGTAATCCGTATTTGGA (site CTACTAGCTTC)
- recombinant UMI read abundance (log10): 0.00519

Sequence: CTACTACCATGGACCGGTTTTCCCGGTAATCCGTATTTGGA (site CTACTATCTTC)
- recombinant UMI read abundance (log10): 1.1

Sequence: CTACTAGCATGGACCGGTTTTCCCGGTAATCCGTATTTGAA (site CTACTAGCTTT)
- recombinant UMI read abundance (log10): 1.95

Sequence: CTACTATCATGGACCGGTTTTCCCGGTAATCCGTATTTGAC (site CTAATATCTGT)
- recombinant UMI read abundance (log10): 0

Sequence: CTACTATCATGGACCGGTTTTCCCGGTAATCCGTATTTGAC (site CTACTATCTGT)
- recombinant UMI read abundance (log10): 2.69

Sequence: CTACTATCATGGACCGGTTTTCCCGGTAATCCGTATTTGAC (site CTAGTATCTGT)
- recombinant UMI read abundance (log10): 0

Sequence: CTACTATCATGGACCGGTTTTCCCGGTAATCCGTATTTGAC (site CTATTATCTGT)
- recombinant UMI read abundance (log10): 0.0113

Sequence: CTAGAACCATGGACCGGTTTTCCCGGTAATCCGTATTTGAG (site CTAGAACCTCT)
- recombinant UMI read abundance (log10): 0.09

Sequence: CTAGCAGCATGGACCGGTTTTCCCGGTAATCCGTATTTGAC (site CTAGCAGCTGT)
- recombinant UMI read abundance (log10): 3.18

Sequence: CTAGCAGCATGGACCGGTTTTCCCGGTAATCCGTATTTGAC (site CTAGTATCTGT)
- recombinant UMI read abundance (log10): 0

Sequence: CTAGCATCATGGACCGGTTTTCCCGGTAATCCGTATTTGAA (site CTAGCATCTTT)
- recombinant UMI read abundance (log10): 2.86

Sequence: CTAGCATCATGGACCGGTTTTCCCGGTAATCCGTATTTGAA (site CTAGTATCTGT)
- recombinant UMI read abundance (log10): 0

Sequence: CTAGCGTCATGGACCGGTTTTCCCGGTAATCCGTATTTGGA (site CTAGCGTCTTC)
- recombinant UMI read abundance (log10): 2.45

Sequence: CTAGGCACATGGACCGGTTTTCCCGGTAATCCGTATTTGCA (site CTAGGCACTTG)
- recombinant UMI read abundance (log10): 1.67

Sequence: CTAGGGGCATGGACCGGTTTTCCCGGTAATCCGTATTTGTG (site CTAGGGGCTCA)
- recombinant UMI read abundance (log10): 1.23

From the supplement of paper PMC11208160
